Measurements published in patent US8101656B2, “Use of 2,2-dimethyl-3-(2,4-dichlorophenyl)-2-oxo-1-oxaspiro[4,5]dec-3-en-4-yl butanoate for controlling acarides” (Bayer CropScience AG, priority 2003, dated 2012).

What was measured:
Format in all cases: in vivo
Tetranychus urticae [1] = experiment: Example B: field spray test against spider mites on hops; settings: 2200 l/ha, sprayed once
Description: Pest: Tetranycus Urticae Crop: Hops The compound of the formula (I) (240SC) was tested at a concentration of 0.0144% a.i. in comparison with the standard Amitraz (200 EC) at 0.05% a.i. The mixture was sprayed once. The spray mixture (2200 l/ha) was applied using a trailed machine operated by a tractor. The plot size was 60 plants, and 2 replications were carried out per test variant. The activity against spider mites was determined 5, 12, 19 and 34 days after the treatment by counting the live animals/leaf (60 leaves/plot) and calculating the efficacy using Abbott's formula.

Tetranychus urticae [2] = experiment: Example A: field spray test against spider mites on hops; settings: 2000 l/ha
Description: Pest: Tetranychus Urticae Crop: Hops The compound of the formula (I) (240SC) was tested at a concentration of 0.0048% a.i. in comparison with cis-cyhalothrin (050EC) at 0.005% a.i. The compound of the formula (I) was used at an early stage of the infestation of the pest, while cis-cyhalothrin was applied when the infestation had progressed to a high level. The spray mixture (2000 l/ha) was applied using a knapsack sprayer operated with compressed air. The plot size was 6 plants, the number of replications per test variant was 2. The activity against spider mites was determined 4, 14 and 21 days (compound of the formula (I)) and 4, 11 and 18 days (cis-cyhalothrin) after the treatment by counting the live animals/leaf (10 leaves/plot) and calculating the efficacy using Abbott's formula.

Tetranychus urticae [3] = experiment: Example C: spray test against spider mites (eggs and nymphs) on black walnut tree; settings: 0.126 pounds a.i. per acre
Description: Pest: Tetranychus Urticae
The compound of the formula (I) (240 SC) was tested at a concentration of 2.02 ounces a.i. per 100 gallons (=0.126 pounds a.i. per acre) in comparison with PYRAMAT (Pyridaben, 75 WP) at an application rate of 0.125 pound a.i. per acre.
The spray mixture (100 gallons per acre) was applied by means of a motor-operated hand-held sprayer.
The test was carried out with one tree per plot and three replication experiments.
The efficacy against spider mites was calculated by counting the live eggs and nymphs on eight leaves per tree before and one, two and six weeks after the application and subsequently calculated using the formula of Henderson & Tilton.

Eotetranychus hicoriae = experiment: Example D: spray test against pecan leaf scorch mite on pecan nut tree; settings: 0.313 pounds a.i. per acre
Description: Pest: Eotetranychus Hicoriae
The compound of the formula (I) (240 SC) was tested at an application rate of 0.313 lb a.i. per acre in comparison with ACRAMIT (Bifenazate, 50 WP) at 0.50 pound of a.i. per acre.
The spray mixture (105 gallons per acre) was applied by means of a motor-operated hand-held sprayer.
The experiment was carried out with one tree per plot and four replication experiments.
The efficacy against the pecan leaf scorch mite was determined by counting the number of live mites on five leaves per tree 6 and 13 days after the application and subsequently calculated by means of the Abbott formula.

In the case of `Cc1ccc(/N=C/N(C)/C=N/c2ccc(C)cc2C)c(C)c1` [Amitraz (200 EC), Amitraz, reference compound], the “Efficacy in % Abbott” value (Tetranychus urticae [1]; 0.05% a.i., 5 days after treatment) is reported as 80.1%, the “Efficacy in % Abbott” value (Tetranychus urticae [1]; 0.05% a.i., 12 days after treatment) is reported as 96.3% and the “Efficacy in % Abbott” value (Tetranychus urticae [1]; 0.05% a.i., 19 days after treatment) is reported as 92.2%.

For `CC1(C)C(/C=C(\Cl)C(F)(F)F)C1C(=O)OC(C#N)c1cccc(Oc2ccccc2)c1` (stereo not drawn) [Cis-cyhalothrin (050 EC), cis-cyhalothrin, reference compound], the “Efficacy in % Abbott” value (Tetranychus urticae [2]; 0.005% a.i., applied at high level of infestation, 4 days after treatment) was 59%, the “Efficacy in % Abbott” value (Tetranychus urticae [2]; 0.005% a.i., applied at high level of infestation, 11 days after treatment) was 57% and the “Efficacy in % Abbott” value (Tetranychus urticae [2]; 0.005% a.i., applied at high level of infestation, 18 days after treatment) was 0%.

`CCC(C)(C)C(=O)OC1=C(c2ccc(Cl)cc2Cl)C(=O)OC12CCCCC2` [Compound of the formula (I) (240 SC), 2,2-Dimethyl-3-(2,4-dichlorophenyl)-2-oxo-1-oxaspiro[4.5]dec-3-en-yl butanoate] was tested, and the “Efficacy in % Abbott” value (Tetranychus urticae [2]; 0.0048% a.i., applied at early stage of infestation, 4 days after treatment) was 90%, the “Efficacy in % Abbott” value (Tetranychus urticae [2]; 0.0048% a.i., applied at early stage of infestation, 14 days after treatment) was 94% and the “Efficacy in % Abbott” value (Tetranychus urticae [2]; 0.0048% a.i., applied at early stage of infestation, 21 days after treatment) was 93%. For the same compound, the “Efficacy in % Abbott” value (Tetranychus urticae [1]; 0.0144% a.i., 5 days after treatment) was 89.7%, the “Efficacy in % Abbott” value (Tetranychus urticae [1]; 0.0144% a.i., 12 days after treatment) was 98.1% and the “Efficacy in % Abbott” value (Tetranychus urticae [1]; 0.0144% a.i., 19 days after treatment) was 99.6%. The “Efficacy in Henderson&Tilton % against NYMPHS” value (Tetranychus urticae [3]; 1 WAA) was 100%, the “Efficacy in Henderson&Tilton % against EGGS” value (Tetranychus urticae [3]; 1 WAA (one week after application)) was 100% and the “Efficacy in Henderson&Tilton % against EGGS” value (Tetranychus urticae [3]; 2 WAA) was 100%. The “Efficacy in Henderson&Tilton % against NYMPHS” value (Tetranychus urticae [3]; 2 WAA) was 100%, the “Efficacy in Henderson&Tilton % against EGGS” value (Tetranychus urticae [3]; 6 WAA) was 64% and the “Efficacy in Henderson&Tilton % against NYMPHS” value (Tetranychus urticae [3]; 6 WAA) was 83%. For the same compound, the “Efficacy in Abbot %” value (Eotetranychus hicoriae; 6 DAA (days after application)) was 100% and the “Efficacy in Abbot %” value (Eotetranychus hicoriae; 13 DAA) was 80%.
